# Organism: Rattus norvegicus
# Assay: DrugMatrix - Regimen: Daily Repeat
# Type: toxicity, organism-based, Sprague-Dawley
# Design: regimen Daily Repeat, gender Male, age 6-8 weeks
# Settings: in vivo, iv, vehicle 100 % SALINE; for ABSOLUTE BASOPHIL / ABSOLUTE EOSINOPHIL / ABSOLUTE LYMPHOCYTE / ABSOLUTE MONOCYTE / ABSOLUTE SEGMENTED NEUTROPHIL / BASOPHIL / EOSINOPHIL / ERYTHROCYTE COUNT / HEMATOCRIT / HEMOGLOBIN / LEUKOCYTE COUNT / LYMPHOCYTE / MEAN CORPUSCULAR HEMOGLOBIN / MEAN CORPUSCULAR HEMOGLOBIN CONCENTRATION / MEAN CORPUSCULAR VOLUME / MONOCYTE / NEUTROPHIL / NUCLEATED RED BLOOD CELLS / PLATELET COUNT: tissue Blood; for ALANINE AMINOTRANSFERASE / ALBUMIN / ALKALINE PHOSPHATASE / ASPARTATE AMINOTRANSFERASE / BLOOD UREA NITROGEN / CARBON DIOXIDE / CHOLESTEROL / CREATINE PHOSPHOKINASE / CREATININE / GLUCOSE / LACTATE DEHYDROGENASE / LIPASE / PHOSPHORUS / POTASSIUM / SODIUM / TOTAL BILIRUBIN / TOTAL PROTEIN / URIC ACID: tissue Plasma
# [1] = 0 mg/kg, 72 h, dose level Control, time 3 day
# [2] = 0 mg/kg, 120 h, dose level Control, time 5 day
# [3] = 18 mg/kg, 72 h, dose level High, time 3 day
smiles,measurement,setting,value
N=C(N)c1ccc(OCCCCCOc2ccc(C(=N)N)cc2)cc1 [PENTAMIDINE],ABSOLUTE BASOPHIL,[1],0 CELLS/uL
same,ABSOLUTE EOSINOPHIL,[1],193.5 CELLS/uL
same,ABSOLUTE LYMPHOCYTE,[1],15717.5 CELLS/uL
same,ABSOLUTE MONOCYTE,[1],389.33 CELLS/uL
same,ABSOLUTE SEGMENTED NEUTROPHIL,[1],1883 CELLS/uL
same,BASOPHIL,[1],0%
same,EOSINOPHIL,[1],1.17%
same,ERYTHROCYTE COUNT,[1],5.68 x10E6/uL
same,HEMATOCRIT,[1],35.83%
same,HEMOGLOBIN,[1],13.48 G/DL
same,LEUKOCYTE COUNT,[1],18.18 x10E3/uL
same,LYMPHOCYTE,[1],86.67%
same,MEAN CORPUSCULAR HEMOGLOBIN,[1],23.8 pg
same,MEAN CORPUSCULAR HEMOGLOBIN CONCENTRATION,[1],37.68 G/DL
same,MEAN CORPUSCULAR VOLUME,[1],63.27 fL
same,MONOCYTE,[1],2.17%
same,NEUTROPHIL,[1],10%
same,NUCLEATED RED BLOOD CELLS,[1],0 /100WBC
same,PLATELET COUNT,[1],1186.33 x10E3/uL
same,ALANINE AMINOTRANSFERASE,[1],68.5 u/L
same,ALBUMIN,[1],4.37 G/DL
same,ALKALINE PHOSPHATASE,[1],396.33 u/L
same,ASPARTATE AMINOTRANSFERASE,[1],92.5 u/L
same,BLOOD UREA NITROGEN,[1],18 mg/dL
same,CARBON DIOXIDE,[1],24.33 mmol/L
same,CHOLESTEROL,[1],67.17 mg/dL
same,CREATINE PHOSPHOKINASE,[1],378.67 u/L
same,CREATININE,[1],0.19 mg/dL
same,GLUCOSE,[1],178.33 mg/dL
same,LACTATE DEHYDROGENASE,[1],245.17 u/L
same,LIPASE,[1],9.2 u/L
same,PHOSPHORUS,[1],12.37 mg/dL
same,POTASSIUM,[1],6.48 MEQ/L
same,SODIUM,[1],143.28 MEQ/L
same,TOTAL BILIRUBIN,[1],0.23 mg/dL
same,TOTAL PROTEIN,[1],5.65 G/DL
same,URIC ACID,[1],1.6 mg/dL
same,ABSOLUTE BASOPHIL,[2],0 CELLS/uL
same,ABSOLUTE EOSINOPHIL,[2],27.5 CELLS/uL
same,ABSOLUTE LYMPHOCYTE,[2],13593.17 CELLS/uL
same,ABSOLUTE MONOCYTE,[2],576 CELLS/uL
same,ABSOLUTE SEGMENTED NEUTROPHIL,[2],1836.67 CELLS/uL
same,BASOPHIL,[2],0%
same,EOSINOPHIL,[2],0.17%
same,ERYTHROCYTE COUNT,[2],5.99 x10E6/uL
same,HEMATOCRIT,[2],37.42%
same,HEMOGLOBIN,[2],13.78 G/DL
same,LEUKOCYTE COUNT,[2],16.03 x10E3/uL
same,LYMPHOCYTE,[2],85.17%
same,MEAN CORPUSCULAR HEMOGLOBIN,[2],23.08 pg
same,MEAN CORPUSCULAR HEMOGLOBIN CONCENTRATION,[2],36.83 G/DL
same,MEAN CORPUSCULAR VOLUME,[2],62.6 fL
same,MONOCYTE,[2],3.5%
same,NEUTROPHIL,[2],11.17%
same,NUCLEATED RED BLOOD CELLS,[2],0 /100WBC
same,PLATELET COUNT,[2],1352.5 x10E3/uL
same,ALANINE AMINOTRANSFERASE,[2],49.83 u/L
same,ALBUMIN,[2],4.25 G/DL
same,ALKALINE PHOSPHATASE,[2],331.33 u/L
same,ASPARTATE AMINOTRANSFERASE,[2],86.17 u/L
same,BLOOD UREA NITROGEN,[2],19.5 mg/dL
same,CARBON DIOXIDE,[2],26.67 mmol/L
same,CHOLESTEROL,[2],67.5 mg/dL
same,CREATINE PHOSPHOKINASE,[2],346.17 u/L
same,CREATININE,[2],0.22 mg/dL
same,GLUCOSE,[2],170.67 mg/dL
same,LACTATE DEHYDROGENASE,[2],405.5 u/L
same,LIPASE,[2],8.83 u/L
same,PHOSPHORUS,[2],11.3 mg/dL
same,POTASSIUM,[2],6.06 MEQ/L
same,SODIUM,[2],143.4 MEQ/L
same,TOTAL BILIRUBIN,[2],0.17 mg/dL
same,TOTAL PROTEIN,[2],6.22 G/DL
same,URIC ACID,[2],1.63 mg/dL
same,ABSOLUTE BASOPHIL,[3],0 CELLS/uL
same,ABSOLUTE EOSINOPHIL,[3],160 CELLS/uL
same,ABSOLUTE LYMPHOCYTE,[3],13847.33 CELLS/uL
same,ABSOLUTE MONOCYTE,[3],361.33 CELLS/uL
same,BASOPHIL,[3],0%
same,EOSINOPHIL,[3],1%
same,ERYTHROCYTE COUNT,[3],5.86 x10E6/uL
same,HEMATOCRIT,[3],36.7%
same,HEMOGLOBIN,[3],13.8 G/DL
same,LEUKOCYTE COUNT,[3],15.4 x10E3/uL
same,LYMPHOCYTE,[3],90%
same,MEAN CORPUSCULAR HEMOGLOBIN,[3],23.57 pg
same,MEAN CORPUSCULAR HEMOGLOBIN CONCENTRATION,[3],37.6 G/DL
same,MEAN CORPUSCULAR VOLUME,[3],62.63 fL
same,MONOCYTE,[3],2.33%
same,NEUTROPHIL,[3],6.67%
same,NUCLEATED RED BLOOD CELLS,[3],0 /100WBC
same,PLATELET COUNT,[3],1444.67 x10E3/uL
same,ALANINE AMINOTRANSFERASE,[3],52 u/L
same,ALBUMIN,[3],4.13 G/DL
same,ALKALINE PHOSPHATASE,[3],303.67 u/L
same,ASPARTATE AMINOTRANSFERASE,[3],79 u/L
same,BLOOD UREA NITROGEN,[3],19 mg/dL
same,CARBON DIOXIDE,[3],26.67 mmol/L
same,CHOLESTEROL,[3],75.33 mg/dL
same,CREATINE PHOSPHOKINASE,[3],308.67 u/L
same,CREATININE,[3],0.22 mg/dL
same,GLUCOSE,[3],158.33 mg/dL
same,LACTATE DEHYDROGENASE,[3],129.67 u/L
same,LIPASE,[3],8.67 u/L
same,PHOSPHORUS,[3],11.17 mg/dL
same,POTASSIUM,[3],6.46 MEQ/L
same,SODIUM,[3],142 MEQ/L
same,TOTAL BILIRUBIN,[3],0.23 mg/dL
same,TOTAL PROTEIN,[3],6.13 G/DL
same,URIC ACID,[3],1.7 mg/dL

# — ChEMBL document CHEMBL3885881, “DrugMatrix”
